Columns and labels:
[1] = Papp-Freab′ calibration of Caco-2 Papp with reference drugs and CLR prediction; set-up: species or system human; conditions: reference drugs; calibrated Caco-2 Papp after Hill equation fitting
Text: To account for this and to allow the Caco-2 data in the present study to be transferable to other assay formats/laboratories, a Papp–Freab′ calibration method was explored by splitting the available Papp and Freab′ data into ‘reference’ and internal ‘validation’ subsets. […] The calibration approach is proposed as a pragmatic method to account for inter-assay/inter-laboratory differences; herein it is applied to the current dataset only, and not external data as intended for future studies.
In order to evaluate the application of Papp–Freab′ calibration (Eq. (17)), 11 drugs were selected as reference ‘calibrator’ drugs (Papp,ref) covering a representative range of Freab′ and Papp values (Table 5). The remaining 34 drugs were treated as an internal ‘validation’ set.

[2] = pKa, potentiometric AstraZeneca in-house assay (or ACD / BioByte); conditions: measured, potentiometric
Text: (§1) The pKa values associated with ionisable centres identified within a given drug were used to calculate the fraction of drug ionised at pH 6.5. Drugs were then classified into groups as follows: drugs with > 50% unionised at pH 6.5 were classified as “Neutral”; drugs with > 50% ionised as mono −/di −/tri-protic acids or bases were classified as “Acid” or “Base”, respectively; “Zwitterions” were classified as drugs with > 50% ionised, with the major ionised species having no net charge; all other drugs were classified as amphoteric. […] LogD6.5 for neutral, amphoteric and zwitterion drugs were assumed to be equal to LogD7.4.

[3] = cited from earlier work; for CLR: healthy adult subjects, overall weighted mean of literature values, absolute (not normalised), ref Supplementary Results Table S2.1; for Overall weighted mean CLR: healthy subjects, plasma and urine data from same subjects, normalised for subject weight and body surface area where necessary; for Overall weighted mean CLR / CLR Observed: ref Table S2.1; for CLR Observed: overall weighted mean of values obtained from a literature survey
[4] = test system: Caco-2 cell monolayers; experiment: Caco-2 apparent permeability (Papp), apical to basolateral, pH 6.5-7.4 gradient, efflux inhibitor cocktail; conditions: Caco-2, apical to basolateral, pH 6.5 to 7.4, efflux inhibitor cocktail, 2 h
Description: (§2) The assay was performed using the apical to basolateral pH gradient format of pH 6.5 to pH 7.4. […] The efflux transporter inhibitor cocktail was used to minimise the effect of efflux transporters expressed in Caco-2 cells (e.g. P-glycoprotein, BCRP and MRP2) on the estimate of apical to basolateral Papp of substrates for such transporters.

[5] = as above; conditions: human, Caco-2, pH 6.5
Description: as §2

[6] = Observed clearance ratio and fraction reabsorbed (Freab, Freab′) calculated from CLR, fu,p and GFR; conditions: for Apparent Freab / Apparent Freab’: calculated from observed CLR, fu,p and GFR; for Freab: observed/apparent, 1 - CLR/(GFR x fu,p), GFR 120 mL/min
Description: The clearance ratio was calculated from clinical data using Eqs. […] For the remaining drugs the fraction reabsorbed (Freab) was calculated using Eq.
GFR values for healthy subjects may vary as a result of biological as well as inter-individual variation and also the method of measurement. […] Individual GFR values for subjects in clinical trials databases were generally not available.
In the proposed model, the nephron is represented as five compartments, namely the glomerulus and four tubular regions, as depicted in Fig. 1. The tubular compartments in the model, listed in anatomical order starting from the glomerulus are: the proximal tubule (PT), the loop of Henle (LoH), the distal tubule (DT) and the collecting duct (CD). […] The relationship between Freab′ and Freab is shown in Eq. (11). The predicted overall Freab′ was calculated from the predicted Freab′ in each (i) tubular region (Freab,i′), as shown in Eq. (12).

[7] = Ionisation classification at pH 6.5 from pKa; type: physicochemical; conditions: predominant species (> 50%) at pH 6.5 from measured or calculated pKa
Text: as §1

[8] = in vitro; conditions: human, Caco-2, pH 6.5
Description: as §2

[9] = LogD7.4 octanol-buffer, shake-flask (or ACD / BioByte); conditions: octanol/buffer, pH 7.4
Text: as §1

[10] = LogD6.5 estimated from LogD7.4 and pKa; conditions: octanol/buffer, pH 6.5
Text: as §1

[11] = set-up: method as in Hammarlund et al., 1985; Swärd et al., 2005; conditions: healthy subjects or cardiac surgery patients, well hydrated; ref Hammarlund et al., 1985; Swärd et al., 2005; cited from earlier work

| Compound | Papp,ref,calibrated [1] | pKa ([2]; pKa (acid)) | pKa ([2]; pKa (base)) | CLR [3] | Overall weighted mean CLR [3] | CLR Observed [3] | Papp [4] | Papp A→B at 2 h [5] | Apparent Freab [6] | Apparent Freab’ [6] | Freab [6] | Ionisation at pH 6.5 [7] | Papp A→B [8] | logD [9] | logD [10] | increase in urine flow compared to control conditions [11] |
| --- | --- | --- | --- | --- | --- | --- | --- | --- | --- | --- | --- | --- | --- | --- | --- | --- |
| C[C@@H]1CN(c2c(F)c(N)c3c(=O)c(C(=O)O)cn(C4CC4)c3c2F)C[C@H](C)N1 [Sparfloxacin] | 34.35 × 10^− 6 cm/s | 6.31 | 8.94 | 21.7 mL/min | 21.7 mL/min | 21.69 mL/min | 49.83 × 10^− 6 cm/s | 49.8 ×10⁻⁶ cm/s | 0.731 | 0.737 | 0.73 | Zwitterion | – | – | – | – |
| NCC1(CC(=O)O)CCCCC1 [Gabapentin] | – | – | – | 95.1 mL/min | 95.1 mL/min | 95.05 mL/min | – | – | 0.183 | 0.185 | 0.18 | Zwitterion | 0.67 ×10⁻⁶ cm/s | – | – | – |
| C[C@@H](c1ncncc1F)[C@](O)(Cn1cncn1)c1ccc(F)cc1F [Voriconazole] | 134.68 × 10^− 6 cm/s | – | – | 1.57 mL/min | 1.6 mL/min | 1.57 mL/min | 96.51 × 10^− 6 cm/s | 96.5 ×10⁻⁶ cm/s | – | – | – | Neutral | – | 1.7 | 1.7 | – |
| Cc1cccc(C)c1NC(=O)C(C)N (centres unmarked) [Tocainide] | 4.68 × 10^− 6 cm/s | – | – | 67.5 mL/min | 67.5 mL/min | 67.50 mL/min | 19 × 10^− 6 cm/s | 19 ×10⁻⁶ cm/s | 0.181 | 0.183 | 0.18 | Base | – | 0.03 | – | – |
| C=CCOc1ccccc1OCC(O)CNC(C)C (centres unmarked) [Oxprenolol] | 12.00 × 10^− 6 cm/s | – | 9.6 | 9.35 mL/min | 9.4 mL/min | 9.35 mL/min | 29.95 × 10^− 6 cm/s | 30 ×10⁻⁶ cm/s | 0.443 | 0.447 | 0.44 | Base | – | 0.23 | – | – |
| CCCNC(=O)NS(=O)(=O)c1ccc(Cl)cc1 [Chlorpropamide] | 111.60 × 10^− 6 cm/s | 4.69 | – | 0.56 mL/min | 0.6 mL/min | 0.56 mL/min | 88.1 × 10^− 6 cm/s | 88.1 ×10⁻⁶ cm/s | 0.907 | 0.915 | 0.91 | Acid | – | – | 0.56 | – |
| NS(=O)(=O)c1cc(C(=O)O)c(NCc2ccco2)cc1Cl [Furosemide] | – | – | – | – | – | – | – | – | – | – | – | – | – | – | – | up to 20 mL/ min |
